According to PMC2680961, “Homologous desensitization of signalling by the alpha (α) isoform of the human thromboxane A2 receptor: A specific role for nitric oxide signalling” (Biochimica et Biophysica Acta, 2007):

Molecular target: T1, TP^Δ328 (Homo sapiens, UniProt P21731)
T1 construct: expressed in transfected cells
T1 sequence (P21731 1-328): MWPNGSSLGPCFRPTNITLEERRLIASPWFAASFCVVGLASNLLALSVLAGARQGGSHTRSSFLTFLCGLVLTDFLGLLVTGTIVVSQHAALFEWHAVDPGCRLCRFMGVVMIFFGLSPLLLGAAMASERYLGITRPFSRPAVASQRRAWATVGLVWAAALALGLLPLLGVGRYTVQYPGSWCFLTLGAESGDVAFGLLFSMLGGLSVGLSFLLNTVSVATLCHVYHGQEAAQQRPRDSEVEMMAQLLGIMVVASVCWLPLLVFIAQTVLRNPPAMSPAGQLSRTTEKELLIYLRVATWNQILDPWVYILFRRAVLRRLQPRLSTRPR
Assay: IP3 generation, HEK.TP^Δ328 cells
Type: cell-based
Details: 1 μM U46619 2 min, washout, restimulation at 60 min
Experimental: Intracellular IP3 levels were measured as previously described [[33,43]]. Briefly, cells were harvested by scraping, washed twice in ice-cold PBS and resuspended at approximately 2 × 10^6 cells/200 μl in HEPES-buffered saline (HBS; […], 4.7 mM KCl, 2.2 mM CaCl2, 1.2 mM KH2PO4, 11 mM glucose, 15 mM HEPES–NaOH, pH 7.4), 10 mM LiCl (Walsh et al., 2000). […] Thereafter, cells were stimulated with 1 μM U46619 at 37 °C for 2 min. To assess agonist-mediated homologous desensitization, cells (2 × 10^6 cells/200 μl) were stimulated with 1 μM U46619 at 37 °C for 2 min (Primary stimulation); thereafter, cells were collected by centrifugation (900×g, 5 min); were washed once in 200 μl HBS, 10 mM LiCl and finally resuspended in 200 μl HBS, 10 mM LiCl and were left to recover for 60 min; thereafter, cells were re-stimulated with 1 μM U46619 at 37 °C for 2 min (secondary stimulation). All ligands and […] were pre-diluted in HBS such that 50 μl added to 200 μl of cell suspension in HBS gave the desired final concentration. To determine basal IP3 levels, an equivalent volume (50 μl) of the vehicle HBS was added instead of ligand. The level of IP3 produced was quantified by radio competition assay essentially as described. […]

IP3 generation following secondary restimulation after U46619 pre-incubation: no significant effect
Compound: CCCCC[C@H](O)/C=C/[C@@H]1[C@@H](C/C=C\CCCC(=O)O)[C@H]2CO[C@@H]1C2 [U46619]
